Data reported in patent US20230248671A1, “USE OF BETA-1 ADRENERGIC RECEPTOR ANTAGONIST FOR PREPARING COMPOSITIONS FOR REDUCING EPITHELIAL CELL DAMAGE INDUCED BY EPIDERMAL GROWTH FACTOR RECEPTOR INHIBITORS AND INHIBITING CANCER CELLS” (CHANG GUNG MEMORIAL HOSPITAL, LINKOU, priority 2020, published 2023).

Tests used:
[1] = test system: A549 cancer cells (EGFR-mutated lung cancer cells); experiment: MTT test (cell viability) on A549 cancer cells; format: cell-based
Description: (§1) A fixed number (7×10^4 cells/dish) of HaCaT cells (human skin keratinocytes) were seeded in each well of a multi-well plate (24 wells). […] MTT (3-(4,5-dimethylthiazol-2-yl)-2,5-diphenyltetrazolium bromide and 300λ bromide-3-(4,5-dimethyl-2-thiazole)-2,5-diphenyltetrazolium) were added and 1 hour later, the supernatant was removed, DMSO was added and the resultant was shook. 200 λ/well of liquid was extracted and added into another multi-well plate (96 wells). ELISA was used to measure the absorbance value (OD570, optical density 570 nm) and calculate the cell cell viability. The experiment was repeated 3 times.
(§2) The effect of EGFR-TKI alone and the simultaneous administration of a β-1 adrenergic receptor antagonist and an EGFR-TKI on cancer cells was examined.
(§3) The effects on HaCaT cells as well as A549 cancer cells was examined.

in vitro = conditions: human
Description: as §1
(§4) The MTT test was carried out to examine the effect of β-1 adrenergic receptor antagonists on epithelial cells.
(§5) The MTT test was carried out to examine the effect of first administering β-1 adrenergic receptor antagonist followed by EGFR-TKI on epithelial cells.
(§6) A MTT test was conducted to examine the effect of simultaneously administering a β-1 adrenergic receptor antagonist and an EGFR-TKI on epithelial cells. […] Referring to FIG. 4, FIG. 4 is a schematic diagram showing the c epithelial cell viability after simultaneously contacting an EGFR-TKI and a β-1 adrenergic receptor antagonist with normal epithelial cells.
as §3

[2] = test system: EGFR monoclonal antibody-induced papulopustular rash; conditions: 0.25% (w/w) topical, day 30 of treatment
Description: (§7) Patients with EGFR-TKI or anti-EGFR monoclonal antibodies induced epithelial cell damage, for example, rosacea or papulopustular rash, were recruited. A composition comprising β-1 adrenergic receptor antagonist was formulated for topical use, and was administered to recruited patients to observe its therapeutic effect.

EGFRI-induced rosacea = conditions: 0.25% (w/w) topical
Description: as §7

[3] = test system: PC9 cancer cell (EGFR-mutated cancer cell); conditions: afatinib and betaxolol administered simultaneously
Description: as §1, §2

[4] = test system: HaCaT cells (human skin keratinocytes); experiment: in vitro
Description: as §1, §4, §5, §6, §3

CN(C)C/C=C/C(=O)Nc1cc2c(Nc3ccc(F)c(Cl)c3)ncnc2cc1O[C@H]1CCOC1 [Afatinib, afatinib]
viability at 1 µM ([1]; Homo sapiens, A549): 101%
viability at 2.5 µM ([1]; Homo sapiens, A549): 100%
viability at 5 µM ([1]; Homo sapiens, A549): 85.2%
viability at 10 µM ([1]; Homo sapiens, A549): 73.4%
viability at 20 µM ([1]; Homo sapiens, A549): 69.1%
viability at 50 µM ([1]; Homo sapiens, A549): 26.4%
viability at 24 h, 0.1 μM (in vitro): 90.6%
viability at 24 h, 0.5 μM (in vitro): 89.8%
viability at 24 h, 1 μM (in vitro): 87.2%
viability at 24 h, 2.5 μM (in vitro): 64.1%
viability at 24 h, 5 μM (in vitro): 34.8%

CC(C)NCC(O)COc1ccc(CCOCC2CC2)cc1 (centres unmarked) [Betaxolol, betaxolol]
inhibitory effect and cytotoxicity on A549 compared with afatinib only ([1]; afatinib and betaxolol together): inhibitory effect was better and cytotoxicity is higher
A549 cancer cell viability, betaxolol only ([1]; cells only in contact with betaxolol): 100%
improvement of papules and pustules of Cetuximab-induced papulopustular rash [2]: significantly improved
improvement of osimertinib-induced rosacea (EGFRI-induced rosacea; 4th day of treatment): significantly improved
improvement of rosacea (FIG. 12) (EGFRI-induced rosacea; 7th day of treatment): improved significantly
improvement of afatinib-induced rosacea (EGFRI-induced rosacea; 14th day of treatment compared to the 1st day): significantly improved
inhibitory effect and cytotoxicity on PC9 compared with afatinib only [3]: inhibitory effect is better and cytotoxicity is higher
viability at 24 h, 10 μM (in vitro; Cell viability (%)): 92.8%
viability at 24 h, 20 μM (in vitro; Cell viability (%)): 91.3%
viability at 24 h, 40 μM (in vitro; Cell viability (%)): 91.4%
viability at 24 h, 80 μM (in vitro; Cell viability (%)): 90.1%
viability at 24 h, 100 μM (in vitro; Cell viability (%)): 88.1%
viability at 24 h (in vitro; HaCaT cell viability, β-1 adrenergic receptor antagonist only): 100%
HaCaT cell viability compared with afatinib only ([4]; betaxolol and afatinib added simultaneously, 24 hours): much improved
effect on cell viability of normal epithelial cells (in words) ([4]; betaxolol only, up to 100 μM): basically does not affect the cell viability

CC(C)(C)NC[C@H](O)COc1nsnc1N1CCOCC1 [timolol, Timolol]
A549 cancer cell viability (change, in words) ([1]; timolol and afatinib simultaneously): did not change significantly
A549 cancer cell viability (change, in words) ([1]; timolol increased to 50 μM, with afatinib): also increased
HaCaT cell viability compared with afatinib only ([4]; afatinib concentration fixed, timolol concentration adjusted): significantly decreased
